# Legend:
# Assay type in all cases: in vivo, human
# [1] = system: celiac disease; test: Elimination-provocation (gluten challenge) test: Gastrointestinal Symptom Rating Scale (GSRS); details: for GSRS (mean total score): rebamipide 100 mg three times a day
# Excerpt: To study the effect of rebamipide on the celiac disease, a gluten challenge test was employed. Adult patients admitted into the test were stabilized on a gluten-free diet (GFD) leading to disappearance of the disease symptoms for at least 12 months. All participants were previously diagnosed by a physician for the celiac disease using upper endoscopy and duodenal biopsy. The gluten-free diet adherence was confirmed by high villous height/crypt depth ratio (Vh/Cd>2-3) and decline in anti-tTG antibody levels (less than 10 U/mL) after the exclusion of gluten from the diet.
# Patients were divided into two groups taking either rebamipide 100 mg three times a day or placebo just before each major meal. Both groups continued the gluten-free diet. The gluten challenge test was carried out three month (day 90) after the start of the treatment. Patients were given one slice of white bread comprising about 2.7 g of wheat gluten every day for the period of 6 weeks but otherwise maintained their usual gluten-free diet. Both groups continued receiving either rebamipide or placebo treatment.
# CD symptoms were weekly evaluated by the Gastrointestinal Symptom Rating Scale (GSRS) questionnaire, an instrument that is widely used in research on celiac disease and other gastrointestinal disorders (Svedlund J, Sjodin I, Dotevall G. GSRS—a clinical rating scale for gastrointestinal symptoms in patients with irritable bowel syndrome and peptic ulcer disease. Dig Dis Sci 1988; 33:129-134). It consists of 15 questions that are grouped into five domains (diarrhea, abdominal pain, indigestion, constipation, and reflux), which are combined into a total score calculated as a mean of all 15 questions. The scoring is based on a Likert scale from 1 to 7 points, where 1 point indicates minimal gastrointestinal symptoms and 7 points the most severe symptoms.
# [2] = system: intestinal permeability; test: Elimination-provocation (gluten challenge) test: urinary lactulose/mannitol (La/Ma) fractional excretion ratio; details: for La/Ma (urinary lactulose/mannitol fractional excretion ratio): rebamipide 100 mg three times a day
# Excerpt: To study the effect of rebamipide on the celiac disease, a gluten challenge test was employed. Adult patients admitted into the test were stabilized on a gluten-free diet (GFD) leading to disappearance of the disease symptoms for at least 12 months. All participants were previously diagnosed by a physician for the celiac disease using upper endoscopy and duodenal biopsy. The gluten-free diet adherence was confirmed by high villous height/crypt depth ratio (Vh/Cd>2-3) and decline in anti-tTG antibody levels (less than 10 U/mL) after the exclusion of gluten from the diet. Patients were divided into two groups taking either rebamipide 100 mg three times a day or placebo just before each major meal. Both groups continued the gluten-free diet. The gluten challenge test was carried out three month (day 90) after the start of the treatment. Patients were given one slice of white bread comprising about 2.7 g of wheat gluten every day for the period of 6 weeks but otherwise maintained their usual gluten-free diet. Both groups continued receiving either rebamipide or placebo treatment. The intestinal permeability was measured using the standard urinary lactulose/mannitol (La/Ma) fractional excretion ratio at the beginning of the lest, before and after 6-week challenge. The La/Ma test is based on a different absorption of non-metabolized sugars. In the healthy intestine, monosaccharides (e.g. mannitol) are passively absorbed through the intestinal mucosa, while larger disaccharide molecules (e.g. lactulose) are normally almost not absorbed. On the contrary, patients with the celiac disease have a consistent increase in the absorption of lactulose (via the paracellular route) due to increased permeability of the intestine and a reduction in the absorption of mannitol (via the transcellular route) due to a reduction in surface area as a result of villous atrophy, resulting in an increase in the La/Ma ratio.
# [3] = system: celiac disease; test: Elimination-provocation (gluten challenge) test: duodenal biopsy, villous height to crypt depth ratio; details: for Vh/Cd (villous height to crypt depth ratio): duodenal biopsy
# Excerpt: (§1) To study the effect of rebamipide on the celiac disease, a gluten challenge test was employed. Adult patients admitted into the test were stabilized on a gluten-free diet (GFD) leading to disappearance of the disease symptoms for at least 12 months. All participants were previously diagnosed by a physician for the celiac disease using upper endoscopy and duodenal biopsy. The gluten-free diet adherence was confirmed by high villous height/crypt depth ratio (Vh/Cd>2-3) and decline in anti-tTG antibody levels (less than 10 U/mL) after the exclusion of gluten from the diet. Patients were divided into two groups taking either rebamipide 100 mg three times a day or placebo just before each major meal. Both groups continued the gluten-free diet. The gluten challenge test was carried out three month (day 90) after the start of the treatment. Patients were given one slice of white bread comprising about 2.7 g of wheat gluten every day for the period of 6 weeks but otherwise maintained their usual gluten-free diet. Both groups continued receiving either rebamipide or placebo treatment. Duodenal biopsy was performed at the beginning (day 0) and at the end (day 132) of the study period. Villous height to crypt depth ratio (Vh/Cd) was determined by measuring the mean height/mean depth of adjacent villi/crypts by a pathologist. The ratio of <2 is regarded as indicative of villous atrophy and crypt hyperplasia.
# [4] = system: anti-tTG IgA antibody; test: Elimination-provocation (gluten challenge) test: serum anti-tTG IgA antibody ELISA
# Excerpt: as §1, with “Serum mean anti-tTG IgA antibody levels were” for “Duodenal biopsy was performed at the beginning (day 0) and at the end (day 132) of the study period. Villous height to crypt depth ratio (Vh/Cd) was”, “an enzyme-linked immunosorbent assay (ELISA) and” for “measuring”, “difference at baseline” for “mean height/mean depth of adjacent villi/crypts by a pathologist. The ratio of <2 is regarded as indicative of villous atrophy”, “after 6-week challenge was compared.” for “crypt hyperplasia.”
# [5] = day 132, after 6-week gluten challenge, rebamipide 100 mg three times a day
smiles,measurement,setting,value
"O=C(NC(Cc1cc(=O)[nH]c2ccccc12)C(=O)O)c1ccc(Cl)cc1 (stereo not drawn) [Rebamipide, 2-[(4-chlorobenzoyl)amino]-3-(2-oxo-1H-quinolin-4-yl)propanoic acid]","difference in mean GSRS scores, rebamipide lower than placebo",[1]; at the end of the study (day 132),0.6 units
same,GSRS (mean total score),"[1]; day 0 (baseline), adult celiac patients on gluten-free diet",2.0
same,GSRS (mean total score),"[1]; day 90, after three month pretreatment, before gluten challenge",1.7
same,GSRS (mean total score),"[1]; day 132, after 6-week gluten challenge (about 2.7 g wheat gluten every day)",1.8
same,La/Ma ratio versus baseline,[2]; at the end of the gluten challenge,remained near the baseline
same,La/Ma (urinary lactulose/mannitol fractional excretion ratio),[2]; day 0 (baseline),0.057
same,La/Ma (urinary lactulose/mannitol fractional excretion ratio),"[2]; day 90, before gluten challenge",0.038
same,La/Ma (urinary lactulose/mannitol fractional excretion ratio),"[2]; day 132, after 6-week gluten challenge",0.048
same,change from baseline to post treatment in villus height to crypt depth ratio,[3]; after 6 weeks of daily gluten intake,didn't exhibit negative changes
same,Vh/Cd (villous height to crypt depth ratio),[3]; day 0 (baseline),2.9
same,Vh/Cd (villous height to crypt depth ratio),[3]; [5],3.1
same,mean anti-tTG IgA antibody titers,[4]; after the gluten challenge,< 10 U/ml
same,anti-tTG IgA (serum mean antibody level),[4]; day 0 (baseline),3.9 U/ml
same,anti-tTG IgA (serum mean antibody level),"[4]; day 90, before gluten challenge, rebamipide 100 mg three times a day",4.3 U/ml
same,anti-tTG IgA (serum mean antibody level),[4]; [5],7.8 U/ml

# From US20220304996A1, “REBAMIPIDE FOR USE IN PROPHYLAXIS AND TREATMENT OF CELIAC DISEASE” (SQUARE POWER LTD., priority 2019, published 2022)
